US6338963B1, “Use of carbon monoxide dependent guanylyl cyclase modifiers to stimulate neuritogenesis” (NeoTherapeutics, Inc., priority 1994, dated 2002)

Columns and labels:
rat cultured astrocytes = assay: Release of radioactively labeled adenine-based purines from rat cultured astrocytes; assay type: cell-based
FGF-2 mRNA = assay: Northern/slot blot of neurotrophin mRNA from astrocytes: FGF-2; assay type: cell-based, NIH Swiss mice; parameters: key to FGF-2 mRNA: The conditions which produced a detectable amount of each of the neurotrophin mRNAs are indicated by a “+”; a “++” indicating that at least twice the detectable amount was present; Those blots which were negative are indicated by a “−”; conditions: for FGF-2 mRNA: 24 hours
Description: Induction of neurotrophin mRNA was determined by northern blot analysis of astrocytes cultured with AIT-082, NGF, or both. The cells were harvested and RNA extracted at 24 hours after treatment.
More particularly, astrocytes from the cerebral cortex of NIH Swiss mice (Harlan) were isolated. Briefly, newborn pups (0-24 hours) were decapitated. Their brains were removed under aseptic conditions and were placed in modified Dulbecco's medium (DMEM) containing 20% heat-inactivated horse serum (Hyclone) (“complete medium”). The neopallium was then dissected from each cerebral hemisphere and minced into 1 mm cubes.
The astrocytes were then isolated by mechanical dissociation. The cubes were vortexed at maximum speed for one minute. The cell suspension was then passed first through 75 mm Nitex then through 10 mm Nitex. The resulting cell suspension was diluted in complete medium to a final concentration of one brain per 10 ml of complete medium. Ten milliliters of the diluted cell suspension was added to each 100 mm Falcon tissue culture plate (Fisher). After 3 days the medium was replaced with 10 ml fresh complete medium and subsequently was replaced twice weekly with DMEM containing 10% heat inactivated horse serum (“growth medium”). After two weeks in culture the astrocytes formed a confluent monolayer.
For RNA extraction, astrocytes were trypsinized. The astrocytes were then replated onto 100 mm PORN coated plates at a cell density of 10^6 cells per plate (10 ml growth medium). After 2 hrs PBS, guanosine (Guo), or GTP at 10 mM were added to the appropriate plates. Total RNA was harvested from 1.5×10^7 cells for each treatment, 4 and 24 hrs after treatment using TRIzol reagent and supplier protocol (GIBCO BRL/Life Technologies, Inc.). For slot blots, total RNA was bound to Hybond-N filters (Amersham/United States Biochemicals) as described in Transfer and Immobilization of Nucleic Acids and Proteins to S & S Solid Supports (S and S Protocols: Schleicher & Schuell, New Hampshire, USA). Northern blots were also performed using […] total RNA from each sample. These were electrophoresed in 1% agarose gels containing formaldehyde and blotted onto Hybond-N filters according to S and S protocols.
The blots were probed with ^32P-labeled cDNA (NGF, NT-3 and BDNF probes) or oligonucleotide probe (FGF-2) by hybridization in Piperazine-N,N′-bis-(2-ethanesulfonic acid) (PIPES) buffer (50 mM PIPES, pH 6.8; 50 mM NaH2PO4; 0.1 M NaCl; 5% SDS and 1 mM EDTA) overnight at 50° C. […] Various concentrations ([…] of total RNA), as determined by spectrophotometry, of each sample were blotted and probed so that quantification could be done after insuring a linear film response. Quantification was performed using MCID Image Analysis (St. Catherine's, Ontario, Canada). […]

S100β protein = S100β protein release from rat cultured astrocytes (ELISA); assay type: cell-based; conditions: for release of S100β protein from astrocytes: exposure for 24 hours
Description: The S100β protein was measured by using an ELISA as described in A. Aurell et al., “The S-100 Protein in Cerebrospinal Fluid: A Simple ELISA Method,” J.Neurol. Sci. 89: 157-164 (1989).
The NGF and S100β protein were measured by removing the cultured medium for the ELISA assays at each indicated time point.

[1] = system: cGMP levels in PC12 cells; assay: cGMP levels in PC12 cells (radioimmunoassay); assay type: cell-based, rat; conditions: NGF-primed PC12 cells
Description: Initially, PC-12 cells were primed with 40 ng/ml NGF for 3 days in low serum medium (1.5% horse serum+5% fetal calf serum). Cells were seeded onto assay plates in low serum medium containing 40 ng/ml NGF and incubated for 1 hour. The medium was changed to low arginine medium (80 μM) with no serum and NGF and papaverine ([…]) where indicated. Test compounds were added for the indicated time and the reaction was stopped by adding 5% TCA containing 10,000 dpm of ^3H-cGMP. cGMP was assayed by the radioimmunoassay method of Maurice (Mol. Pharmacol. 37: 671-681, 1990). TCA was purified by adding powdered charcoal (5 g) and filtering the mixture through Whatman #1 paper. This removed contaminants in the TCA that otherwise interfere with the radioimmunoassay (RIA) of cGMP.
It was necessary to purify the cGMP from cAMP and other contaminants before radioimmunoassay since these other materials can interfere with the assay. Briefly, the TCA solution was applied to Dowex columns (50W-8X, 200-400 mesh) and eluted. A neutral alumina column was then placed under each Dowex column. The cGMP was eluted from the Dowex columns into neutral alumina columns by adding 4 mL of 0.05 M HCl to each Dowex column. The neutral alumina columns were then sequentially rinsed with 2 ml of HCl, 4 mL water and finally with 0.2 M sodium acetate (pH 6.2). The cGMP collected for the RIA eluted in 1 ML of sodium acetate with a recovery between 50-65%. The cGMP was assayed using a Dupont RIA kit.

For `O=C(CCn1cnc2c(=O)[nH]cnc21)Nc1ccc(C(=O)O)cc1` [AIT-082, N-4-carboxyphenyl-3-(6-oxohydropurin-9-yl)propanamide], the “outflow of radioactive adenine-based purines” value (rat cultured astrocytes; astrocytes exposed for one hour) was “dose-dependent increase”, the “release of adenosine and inosine” value (rat cultured astrocytes; first hour of the release) was “increased the release of adenosine and inosine in a dose-dependent fashion” and the “release of hypoxanthine and the adenine nucleotides ATP, ADP, or AMP” value (rat cultured astrocytes; first hour of the release) was “without effecting the release”. The “FGF-2 mRNA” value (FGF-2 mRNA; AIT-082 100 mM) was “++”, the “FGF-2 mRNA” value (FGF-2 mRNA; AIT-082 + NGF (40 ng/ml)) was “+” and the “time of peak release of S100β protein” value (S100β protein; AIT-082 100 μM) was “peaked within three hours”. For the same compound, the “release of S100β protein from astrocytes” value (S100β protein) was “dose-dependent increase” and the “cGMP in PC12 cells” value [1] was “increased the production of cGMP”.
In the case of `Nc1nc2c(ncn2[C@@H]2O[C@H](CO)[C@@H](O)[C@H]2O)c(=O)[nH]1` [guanosine], the “ADP, radioactivity released in the culture medium” value (rat cultured astrocytes; 300 μM, 1 hour) is reported as 0.84 ± 0.09 cpm × 10^3, the “AMP, proportional release” value (rat cultured astrocytes; 300 μM, 1 hour) is reported as “(12.3 ± 1.7) percentage of the total [^3H]-purines released” and the “AMP, radioactivity released in the culture medium” value (rat cultured astrocytes; 300 μM, 1 hour) is reported as 1.58 ± 0.22 cpm × 10^3. The “ATP, proportional release” value (rat cultured astrocytes; 300 μM, 1 hour) was “(5.5 ± 0.7) percentage of the total [^3H]-purines released”, the “ATP, radioactivity released in the culture medium” value (rat cultured astrocytes; 300 μM, 1 hour) was 0.71 ± 0.09 cpm × 10^3 and the “Adenosine, radioactivity released in the culture medium” value (rat cultured astrocytes; 300 μM, 1 hour) was 1.53 ± 0.10 cpm × 10^3. The “Hypoxanthine, proportional release” value (rat cultured astrocytes; 300 μM, 1 hour) was “(24.7 ± 1.5) percentage of the total [^3H]-purines released”, the “Hypoxanthine, radioactivity released in the culture medium” value (rat cultured astrocytes; 300 μM, 1 hour) was 3.41 ± 0.20 cpm × 10^3 and the “Inosine, radioactivity released in the culture medium” value (rat cultured astrocytes; 300 μM, 1 hour) was 4.64 ± 0.51 cpm × 10^3. The “ADP, proportional release” value (rat cultured astrocytes; 300 μM, 3 hours) was “(4.0 ± 0.6) percentage of the total [^3H]-purines released”, the “ADP, radioactivity released in the culture medium” value (rat cultured astrocytes; 300 μM, 3 hours) was 0.50 ± 0.07 cpm × 10^3 and the “AMP, proportional release” value (rat cultured astrocytes; 300 μM, 3 hours) was “(11.9 ± 1.0) percentage of the total [^3H]-purines released”. The “AMP, radioactivity released in the culture medium” value (rat cultured astrocytes; 300 μM, 3 hours) was 1.37 ± 0.14 cpm × 10^3, the “ATP, proportional release” value (rat cultured astrocytes; 300 μM, 3 hours) was “(3.1 ± 0.32) percentage of the total [^3H]-purines released” and the “ATP, radioactivity released in the culture medium” value (rat cultured astrocytes; 300 μM, 3 hours) was 0.39 ± 0.04 cpm × 10^3. The “Adenosine, proportional release” value (rat cultured astrocytes; 300 μM, 3 hours) was “(9.3 ± 0.9) percentage of the total [^3H]-purines released”, the “Adenosine, radioactivity released in the culture medium” value (rat cultured astrocytes; 300 μM, 3 hours) was 1.16 ± 0.15 cpm × 10^3 and the “Hypoxanthine, proportional release” value (rat cultured astrocytes; 300 μM, 3 hours) was “(26.3 ± 2.7) percentage of the total [^3H]-purines released”. For the same compound, the “Hypoxanthine, radioactivity released in the culture medium” value (rat cultured astrocytes; 300 μM, 3 hours) was 3.29 ± 0.34 cpm × 10^3, the “Inosine, proportional release” value (rat cultured astrocytes; 300 μM, 3 hours) was “(3.25 ± 3.3) percentage of the total [^3H]-purines released” and the “Inosine, radioactivity released in the culture medium” value (rat cultured astrocytes; 300 μM, 3 hours) was 4.09 ± 0.41 cpm × 10^3. The “FGF-2 mRNA in astrocytes” value (FGF-2 mRNA; guanosine, 24 hours after addition) was “increased”, the “release of S100β protein from astrocytes” value (S100β protein) was “dose-dependent increase” and the “cGMP in PC12 cells” value [1] was “increased intracellular cGMP”.
